Data reported in publication PMC10451668, “Natural Acetogenins, Chatenaytrienins-1, -2, -3 and -4, Mitochondrial Potential Uncouplers and Autophagy Inducers—Promising Anticancer Agents” (Antioxidants, 2023).

How the values were obtained:
[1] = Cytotoxicity assay (7-AAD viability, flow cytometry); format: cell-based, human; details: human; Hek293, conditionally normal line; ± standard error of the mean, 95% CI in parenthesis
Text: (§1) Cells, including Jurkat E6.1 (human leukemic T cell lymphoblasts, catalogue no. 88042803), K562 (human chronic myelogenous leukemia cells, catalogue no. 89121407), U937 (human histiocytic lymphoma cells, catalogue no. 85011440), HL60 (human promyelocytic leukemia cells, catalog no. 98070106), HEK293 (human embryonic kidney cells with adenovirus, catalog no. 85120602), and human lung fibroblasts Ce (catalogue no. 90011883), were purchased from the European Collection of Authenticated Cell Cultures (UK Health Security Agency) and cultured according to standard protocols using sterile techniques. […] Cells were maintained in RPMI 1640 (Jurkat, K562, U937, and HL60) and DME M (fibroblast and HEK293) (Gibco) supplemented with […] glutamine, 10% FBS (Sigma), and 100 units/mL penicillin-streptomycin (Sigma). All types of cells were grown under an atmosphere of 5% CO2 at 37 °C. The cells were subcultured at 2–3-day intervals. Cells were then seeded in 24-well plates at 5 × 10^4 cells per well and incubated overnight. Jurkat, K562, U937, HL60, HEK293, and fibroblast cells were subcultured at 2-day intervals with a seeding density of 1 × 10^5 cells per well in 24-well plates in RPMI with 10% FBS.
(§2) Viability (live/dead) assessment was performed by staining cells with 7-AAD (7-aminoactinomycin D; Biolegend). After treatment, cells were harvested, washed 1–2 times with phosphate-buffered saline (PBS), and centrifuged at 400× g for 5 min. Cell pellets were resuspended in 200 µL of flow cytometry staining buffer (PBS without Ca^2+ and Mg^2+, 2.5% FBS) and stained with […] of 7-AAD staining solution for 15 min at room temperature in the dark. Samples were assessed using the NovoCyte Penteon Flow Cytometer System (Agilent, 5301 Stevens Creek Blvd., Santa Clara, CA, USA). Detection of 7-AAD emission was collected through a 675/30 nm filter in the FL4 channel.

HL60 = assay: as above; format: cell-based, human; details: 95% CI in parenthesis
Text: as §1, §2

Jurkat = assay: as above; format: cell-based, human; details: ± standard error of the mean, 95% CI in parenthesis
Text: as §1, §2

K562 = assay: as above; format: cell-based, human; details: ± standard error of the mean, 95% CI in parenthesis
Text: as §1, §2

U937 = assay: as above; format: cell-based, human; details: 95% CI in parenthesis
Text: as §1, §2

[2] = as above; format: cell-based, human; details: human; normal fibroblasts; ± standard error of the mean, 95% CI in parenthesis
Jurkat cells [3] = assay: Detection of mitodamage: mitochondrial membrane potential and apoptosis (MitoSense Red, annexin V, 7-AAD); format: cell-based, human; details: compound at CC50, 4 h; for cells in late apoptosis (stained with 7-AAD): Jurkat; for Jurkat tumor cells with the Δψ dissipation phenomenon: MitoSense Red
Text: The use of reagents MitoSense Red, annexin V, and 7-AAD in the Millipore FlowCellect™ MitoDamage Kit allowed us to gain information on early, mid, and late apoptosis with one simple assay. […] After this time, the cells were dissociated using an accutase solution, stained, and analyzed using the NovoCyte Penteon Flow Cytometer System (Agilent, 5301 Stevens Creek Blvd., Santa Clara, CA, USA), according to the manufacturer’s protocols for the FlowCellect™ MitoDamage Kit and FlowCellect™ Oxidative Stress Characterization Kit (Merck).
Detection of mitochondrial potential dissipation using MitoSense Red, annexin V, and 7-AAD provided a simultaneous measurement of three important parameters of the cell state within the same cell sample: the state of the mitochondrial potential (Δψ), detected by the membrane-penetrating MitoSense Red dye; the expression of phosphatidylserine on the cell surface of apoptotic cells, assessed by the binding of annexin V to externalized phosphatidylserine; and the binding of 7-AAD to DNA in cells in the late stages of apoptosis. Multiparametric evaluation of these indicators of cell viability made it possible to determine the correlation and relationship between oxidation dissipation and phosphorylation with apoptosis.

Jurkat tumor cell line = assay: Assessment of cytochrome c loss (FlowCellect Cytochrome c Kit); format: cell-based, human; details: compound at CC50, incubation 3 h, anti-cytochrome c-FITC
Protocol: Quantification of cytochrome c release from mitochondria in apoptotic cells was presented to detect the mitochondrial pathway of apoptosis in cells using flow cytometry with the FlowCellect™ Cytochrome c Kit (FCCH100110). For this, cells were treated with FITC-conjugated antibodies against cytochrome c and control anti-IgG1-FITC, together with the use of an optimized fixation procedure, permeabilization, and blocking buffer (Luminex®, USA). […] Jurkat cells were incubated for 4 h with the synthesized substances at a concentration corresponding to their 24-h CC50 in a culture plate and assessed using the NovoCyte Penteon Flow Cytometer System (Agilent, 5301 Stevens Creek Blvd., Santa Clara, CA, USA). The obtained data were processed using NovoExpress® software (ACEA).

Jurkat cells [4] = assay: Oxidative stress and early apoptosis (MitoSOX Red and annexin V, MitoStress Kit); format: cell-based, human; details: compound at CC50, 4 h; for cells demonstrating oxidative stress along with the marker of early apoptosis, annexin: MitoSOX Red and annexin V
Text: Changes in the mitochondrial membrane potential (ΔΨ) in Jurkat cells induced by treatment with the synthesized compounds were detected using MitoSOX Red, a positively charged probe that accumulates rapidly in mitochondria and as such can be used to detect superoxide/ROS production within mitochondria using fluorometry, microscopy, or flow cytometry. Live cells induced a low level of MitoSOX Red fluorescence, while cells with scattered mitochondrial membrane potential caused much higher MitoSOX Red fluorescence. Annexin V is a dye commonly used to detect early signs of apoptosis. […] Thus, using two different dyes, MitoSOX Red and annexin V (CF488A), in the FlowCellect™ MitoStress Kit (FCCH100109), we analyzed the mitochondrial membrane potential dissipation and associated apoptosis in Jurkat cells in response to the synthesized chatenaytrienins.
Therefore, simultaneous detection of mitochondrial superoxide generation (detected by MitoSOX Red membrane-penetrating dye) and expression of phosphatidylserine on the cell surface of apoptotic cells (assessed by binding of annexin V) in the same cell sample provides an accurate evaluation of the ability of the test compound to initiate oxidative stress in cell culture and induce apoptosis.

Jurkat cells [5] = assay: Assessment of autophagy (anti-LC3/FITC, flow cytometry); format: cell-based, human; details: 0.5 CC50, 48 h
Text: Autophagy is involved in various physiological processes and its changes are associated with the pathogenesis of diseases such as neurodegenerative diseases, cardiovascular complications, cancer, and infectious diseases, as well as with physiological processes such as innate and specific immunity, pathogen clearance, lymphocyte selection, antigen presentation, and production of immunoglobulins. Therefore, the determination of LC3 protein inside autophagosomes without the cytosolic form of LC3-I at the stage of selective cell permeability was measured using flow cytometry. Thus, using the FlowCellect™ LC3-GFP Reporter Autophagy Assay Kit (FCCH100170 and FCCH100181), flow cytometry allowed for a rapid assay that could be combined with other phenotypic and functional markers to characterize different cell populations.
Canonical autophagy is associated with the conversion of LC3 protein (an autophagosome marker) from the cytoplasmic form of LC3I to the lipid-bound form of LC3II, which is associated with the membranes of maturing autophagosomes. The autophagy process can be conveniently classified into several stages. First, induction and translocation of the cytoplasmic LC3 protein occur due to the influence of external stimuli (adverse environmental influences)—the process is initiated by external/internal stimuli (for example, nutrient depletion or hypoxia). Then, the formation of autophagosomes begins, which are double-membrane vesicles that include the LC3 protein. This protein regulates the fusion of autophagosomes and lysosomes. It exists in two fractions—cytoplasmic LC3-I and LC3-II, isolated in the autophagosomal membrane. The LC3-II protein fraction was specified in our work, as its detection is a reliable indicator of the processes of autophagy in the cell.

Jurkat cells [6] = assay: Cell cycle analysis (propidium iodide, Guava Cell Cycle Reagent); format: cell-based, human; details: compound at CC50, 48 h, control did not exceed 34.2%
Protocol: The cell cycle was analyzed by propidium iodide staining (Guava® Cell Cycle Reagent 4500-0220). […] The cell pellet was resuspended in 200 μL of flow cytometry staining buffer (PBS without Ca^2+ and Mg^2+, 2.5% FBS). Cells were then seeded in 24-well plates at a density of 15 × 10^5 cells per well, centrifuged at 450× g for 5 min, then fixed with ice-cold 70% ethanol for 24 h at 0 °C. Before staining with propidium iodide, cells were washed with PBS and incubated with 250 µL of cell cycle detection reagent (Millipore) for 40 min at 22 °C in the dark. Samples were analyzed using the NovoCyte Penteon Flow Cytometer System (Agilent, 5301 Stevens Creek Blvd., Santa Clara, CA, USA).

T24 bladder cancer cells = tested on: T24 bladder cancer cells; set-up: method as in PMID 16154156; details: cited from earlier work
Hek293 = assay: Cytotoxicity assay (7-AAD viability, flow cytometry); format: cell-based, human; details: Hek293, conditionally normal line; ± standard error of the mean, 95% CI in parenthesis
Text: as §1, §2

[7] = tested on: Fibroblasts (PCS-201-018); assay: as above; format: cell-based, human; details: normal fibroblasts; ± standard error of the mean, 95% CI in parenthesis

| Compound | CC50 [1] | CC50 (HL60; Homo sapiens, HL-60, ± standard error of the mean) | CC50 (Jurkat; Homo sapiens) | CC50 (K562; Homo sapiens) | CC50 (U937; Homo sapiens, U-937, ± standard error of the mean) | CC50 [2] | cells in late apoptosis (stained with 7-AAD) (Jurkat cells [3]) | Jurkat tumor cells with the Δψ dissipation phenomenon (Jurkat cells [3]) | cells with cytochrome c released into the cytoplasm (Negative gate) (Jurkat tumor cell line) | cells demonstrating oxidative stress along with the marker of early apoptosis, annexin (Jurkat cells [4]) | cells with autophagy (gate M3-2) (Jurkat cells [5]) | percentage of cells in the S-phase (Jurkat cells [6]) | effect on cell cycle (T24 bladder cancer cells) | CC50 (HL60; ± standard error of the mean) | CC50 (Hek293) | CC50 (Jurkat) | CC50 (K562) | CC50 (U937; ± standard error of the mean) | CC50 [7] | intact (live) cells in the sample (Jurkat cells [4]) |
| --- | --- | --- | --- | --- | --- | --- | --- | --- | --- | --- | --- | --- | --- | --- | --- | --- | --- | --- | --- | --- |
| CCCCCCCCCCCC/C=C\CC/C=C\CC/C=C\CCCCCCCCC1=C[C@H](C)OC1=O [compound 2, chatenaytrienin-2] | 630 ± 30 nM | 130 ± 20 nM | 120 ± 60 nM | 180 ± 50 nM | 120 ± 10 nM | 790 ± 20 nM | 8.44% | 67.76% | 33.51% | 11.86% | 79.96% | ~ 47% | – | – | – | – | – | – | – | – |
| CCCCCC[C@H](O)CCC[C@H](O)[C@H]1CC[C@H]([C@H]2CC[C@H]([C@H](O)CCCCCCCCCCCCC3=C[C@H](C)OC3=O)O2)O1 [squamocin] | – | – | – | – | – | – | – | – | – | – | – | – | blocked cells in the G1 phase | – | – | – | – | – | – | – |
| chatenaytrienin-3 [compound 3] | – | – | – | – | – | – | 17.01% | 62.42% | 41.99% | – | 91.50% | – | – | 140 ± 40 nM | 780 ± 40 nM | 150 ± 40 nM | 90 ± 10 nM | 180 ± 20 nM | 830 ± 50 nM | 9.9% |
| chatenaytrienin-4 [compound 4] | – | – | – | – | – | – | 1.88% | 53.51% | 42.10% | 26.8% | 56.09% | – | – | 190 ± 20 nM | 530 ± 10 nM | 160 ± 10 nM | 130 ± 40 nM | 130 ± 50 nM | 980 ± 40 nM | – |
